Reference: the NIST ThermoML archive (doi:10.1021/je300873x)
± gives the expanded uncertainty stated by the source.

Experiment: mn = molality of the nth substance listed, in mol/kg
Conditions: for surface tension liquid-gas: Pendant drop shape; for electrical conductivity: Liquid, Digital conductivity meter

CCCCCCCCCCCCCCCC[N+](C)(C)CCO.[Br-] [N-cetyl-hydroxyethyl-dimethyl ammonium bromide] + O
surface tension liquid-gas (298.15 K, m1 = 0.00016): 61.83 ± 0.56 mN/m | surface tension liquid-gas (298.15 K, m1 = 0.00033): 53.61 ± 0.49 mN/m | surface tension liquid-gas (298.15 K, m1 = 0.00049): 45.49 ± 0.43 mN/m | surface tension liquid-gas (298.15 K, m1 = 0.00059): 41.63 ± 0.4 mN/m | surface tension liquid-gas (298.15 K, m1 = 0.00069): 39.31 ± 0.38 mN/m | surface tension liquid-gas (298.15 K, m1 = 0.00074): 38.39 ± 0.38 mN/m | surface tension liquid-gas (298.15 K, m1 = 0.00078): 37.61 ± 0.37 mN/m | surface tension liquid-gas (298.15 K, m1 = 0.00083): 37.58 ± 0.37 mN/m | surface tension liquid-gas (298.15 K, m1 = 0.00088): 37.3 ± 0.37 mN/m | surface tension liquid-gas (298.15 K, m1 = 0.00098): 37.24 ± 0.37 mN/m | surface tension liquid-gas (298.15 K, m1 = 0.00108): 37.15 ± 0.37 mN/m | surface tension liquid-gas (298.15 K, m1 = 0.00118): 37.12 ± 0.37 mN/m | electrical conductivity (298.15 K, m1 = 0.00075): 0.0068 ± 0.0001 S/m | electrical conductivity (298.15 K, m1 = 0.00078): 0.007 ± 0.0001 S/m | electrical conductivity (298.15 K, m1 = 0.00081): 0.0072 ± 0.0001 S/m | electrical conductivity (298.15 K, m1 = 0.00084): 0.0074 ± 0.0001 S/m | electrical conductivity (298.15 K, m1 = 0.00088): 0.0076 ± 0.0001 S/m | electrical conductivity (298.15 K, m1 = 0.00092): 0.0078 ± 0.0001 S/m | electrical conductivity (298.15 K, m1 = 0.00096): 0.0079 ± 0.0001 S/m | electrical conductivity (298.15 K, m1 = 0.00101): 0.008 ± 0.0001 S/m | electrical conductivity (298.15 K, m1 = 0.00106): 0.0082 ± 0.0001 S/m | electrical conductivity (298.15 K, m1 = 0.00112): 0.0084 ± 0.0001 S/m | electrical conductivity (298.15 K, m1 = 0.00119): 0.0085 ± 0.0001 S/m | electrical conductivity (298.15 K, m1 = 0.00126): 0.0087 ± 0.0001 S/m | electrical conductivity (298.15 K, m1 = 0.00135): 0.0089 ± 0.0001 S/m | electrical conductivity (298.15 K, m1 = 0.00144): 0.0091 ± 0.0001 S/m | electrical conductivity (298.15 K, m1 = 0.00156): 0.0094 ± 0.0001 S/m | electrical conductivity (298.15 K, m1 = 0.00169): 0.0097 ± 0.0001 S/m | electrical conductivity (298.15 K, m1 = 0.00184): 0.0101 ± 0.0001 S/m | electrical conductivity (298.15 K, m1 = 0.00202): 0.0105 ± 0.0001 S/m | electrical conductivity (303.15 K, m1 = 0.00075): 0.0076 ± 0.0001 S/m | electrical conductivity (303.15 K, m1 = 0.00078): 0.0078 ± 0.0001 S/m | electrical conductivity (303.15 K, m1 = 0.00081): 0.0081 ± 0.0001 S/m | electrical conductivity (303.15 K, m1 = 0.00084): 0.0083 ± 0.0001 S/m | electrical conductivity (303.15 K, m1 = 0.00088): 0.0085 ± 0.0001 S/m | electrical conductivity (303.15 K, m1 = 0.00092): 0.0088 ± 0.0001 S/m | electrical conductivity (303.15 K, m1 = 0.00096): 0.009 ± 0.0001 S/m | electrical conductivity (303.15 K, m1 = 0.00101): 0.0091 ± 0.0001 S/m | electrical conductivity (303.15 K, m1 = 0.00106): 0.0093 ± 0.0001 S/m | electrical conductivity (303.15 K, m1 = 0.00112): 0.0095 ± 0.0001 S/m | electrical conductivity (303.15 K, m1 = 0.00119): 0.0097 ± 0.0001 S/m | electrical conductivity (303.15 K, m1 = 0.00126): 0.0099 ± 0.0001 S/m | electrical conductivity (303.15 K, m1 = 0.00135): 0.0101 ± 0.0001 S/m | electrical conductivity (303.15 K, m1 = 0.00144): 0.0104 ± 0.0001 S/m | electrical conductivity (303.15 K, m1 = 0.00155): 0.0107 ± 0.0001 S/m | electrical conductivity (303.15 K, m1 = 0.00168): 0.0111 ± 0.0001 S/m | electrical conductivity (303.15 K, m1 = 0.00184): 0.0114 ± 0.0001 S/m | electrical conductivity (303.15 K, m1 = 0.00202): 0.0119 ± 0.0001 S/m | electrical conductivity (308.15 K, m1 = 0.00075): 0.0083 ± 0.0001 S/m | electrical conductivity (308.15 K, m1 = 0.00078): 0.0086 ± 0.0001 S/m | electrical conductivity (308.15 K, m1 = 0.00081): 0.0089 ± 0.0001 S/m | electrical conductivity (308.15 K, m1 = 0.00084): 0.0092 ± 0.0001 S/m | electrical conductivity (308.15 K, m1 = 0.00088): 0.0095 ± 0.0001 S/m | electrical conductivity (308.15 K, m1 = 0.00092): 0.0097 ± 0.0001 S/m | electrical conductivity (308.15 K, m1 = 0.00096): 0.01 ± 0.0001 S/m | electrical conductivity (308.15 K, m1 = 0.00101): 0.0102 ± 0.0001 S/m | electrical conductivity (308.15 K, m1 = 0.00106): 0.0105 ± 0.0001 S/m | electrical conductivity (308.15 K, m1 = 0.00112): 0.0107 ± 0.0001 S/m | electrical conductivity (308.15 K, m1 = 0.00119): 0.0108 ± 0.0001 S/m | electrical conductivity (308.15 K, m1 = 0.00126): 0.0111 ± 0.0001 S/m | electrical conductivity (308.15 K, m1 = 0.00134): 0.0113 ± 0.0001 S/m | electrical conductivity (308.15 K, m1 = 0.00144): 0.0117 ± 0.0001 S/m | electrical conductivity (308.15 K, m1 = 0.00155): 0.012 ± 0.0001 S/m | electrical conductivity (308.15 K, m1 = 0.00168): 0.0125 ± 0.0001 S/m | electrical conductivity (308.15 K, m1 = 0.00183): 0.0129 ± 0.0001 S/m | electrical conductivity (308.15 K, m1 = 0.00202): 0.0134 ± 0.0001 S/m | electrical conductivity (313.15 K, m1 = 0.00077): 0.0094 ± 0.0001 S/m | electrical conductivity (313.15 K, m1 = 0.0008): 0.0098 ± 0.0001 S/m | electrical conductivity (313.15 K, m1 = 0.00084): 0.0101 ± 0.0001 S/m | electrical conductivity (313.15 K, m1 = 0.00087): 0.0105 ± 0.0001 S/m | electrical conductivity (313.15 K, m1 = 0.00091): 0.0108 ± 0.0001 S/m | electrical conductivity (313.15 K, m1 = 0.00096): 0.0111 ± 0.0001 S/m | electrical conductivity (313.15 K, m1 = 0.00101): 0.0114 ± 0.0001 S/m | electrical conductivity (313.15 K, m1 = 0.00106): 0.0118 ± 0.0001 S/m | electrical conductivity (313.15 K, m1 = 0.00112): 0.012 ± 0.0001 S/m | electrical conductivity (313.15 K, m1 = 0.00118): 0.0123 ± 0.0001 S/m | electrical conductivity (313.15 K, m1 = 0.00126): 0.0126 ± 0.0001 S/m | electrical conductivity (313.15 K, m1 = 0.00134): 0.0129 ± 0.0001 S/m | electrical conductivity (313.15 K, m1 = 0.00144): 0.0133 ± 0.0001 S/m | electrical conductivity (313.15 K, m1 = 0.00155): 0.0137 ± 0.0001 S/m | electrical conductivity (313.15 K, m1 = 0.00168): 0.0141 ± 0.0001 S/m | electrical conductivity (313.15 K, m1 = 0.00183): 0.0147 ± 0.0001 S/m | electrical conductivity (313.15 K, m1 = 0.00201): 0.0154 ± 0.0001 S/m | electrical conductivity (318.15 K, m1 = 0.00074): 0.0101 ± 0.0001 S/m | electrical conductivity (318.15 K, m1 = 0.00077): 0.0104 ± 0.0001 S/m | electrical conductivity (318.15 K, m1 = 0.0008): 0.0109 ± 0.0001 S/m | electrical conductivity (318.15 K, m1 = 0.00084): 0.0112 ± 0.0001 S/m | electrical conductivity (318.15 K, m1 = 0.00087): 0.0116 ± 0.0001 S/m | electrical conductivity (318.15 K, m1 = 0.00091): 0.0119 ± 0.0001 S/m | electrical conductivity (318.15 K, m1 = 0.00096): 0.0124 ± 0.0001 S/m | electrical conductivity (318.15 K, m1 = 0.001): 0.0128 ± 0.0001 S/m | electrical conductivity (318.15 K, m1 = 0.00106): 0.0132 ± 0.0001 S/m | electrical conductivity (318.15 K, m1 = 0.00112): 0.0137 ± 0.0001 S/m | electrical conductivity (318.15 K, m1 = 0.00118): 0.014 ± 0.0001 S/m | electrical conductivity (318.15 K, m1 = 0.00126): 0.0144 ± 0.0001 S/m | electrical conductivity (318.15 K, m1 = 0.00134): 0.0148 ± 0.0001 S/m | electrical conductivity (318.15 K, m1 = 0.00143): 0.0152 ± 0.0001 S/m | electrical conductivity (318.15 K, m1 = 0.00154): 0.0158 ± 0.0001 S/m | electrical conductivity (318.15 K, m1 = 0.00167): 0.0164 ± 0.0001 S/m | electrical conductivity (318.15 K, m1 = 0.00183): 0.0169 ± 0.0001 S/m | electrical conductivity (318.15 K, m1 = 0.00201): 0.0174 ± 0.0001 S/m | electrical conductivity (323.15 K, m1 = 0.00074): 0.0107 ± 0.0001 S/m | electrical conductivity (323.15 K, m1 = 0.00077): 0.0111 ± 0.0001 S/m | electrical conductivity (323.15 K, m1 = 0.0008): 0.0116 ± 0.0001 S/m | electrical conductivity (323.15 K, m1 = 0.00083): 0.012 ± 0.0001 S/m | electrical conductivity (323.15 K, m1 = 0.00087): 0.0124 ± 0.0001 S/m | electrical conductivity (323.15 K, m1 = 0.00091): 0.0129 ± 0.0001 S/m | electrical conductivity (323.15 K, m1 = 0.00095): 0.0134 ± 0.0001 S/m | electrical conductivity (323.15 K, m1 = 0.001): 0.014 ± 0.0001 S/m | electrical conductivity (323.15 K, m1 = 0.00105): 0.0143 ± 0.0001 S/m | electrical conductivity (323.15 K, m1 = 0.00111): 0.0151 ± 0.0001 S/m | electrical conductivity (323.15 K, m1 = 0.00118): 0.0157 ± 0.0001 S/m | electrical conductivity (323.15 K, m1 = 0.00125): 0.016 ± 0.0001 S/m | electrical conductivity (323.15 K, m1 = 0.00134): 0.0166 ± 0.0001 S/m | electrical conductivity (323.15 K, m1 = 0.00143): 0.0171 ± 0.0001 S/m | electrical conductivity (323.15 K, m1 = 0.00154): 0.0176 ± 0.0001 S/m | electrical conductivity (323.15 K, m1 = 0.00167): 0.0182 ± 0.0001 S/m | electrical conductivity (323.15 K, m1 = 0.00182): 0.0189 ± 0.0001 S/m | electrical conductivity (323.15 K, m1 = 0.002): 0.0196 ± 0.0001 S/m
